In US20240277829A1, “HIV-1 VACCINATION AND SAMT-247 MICROBICIDE TO PREVENT HIV-1 INFECTION” (priority 2021, published 2024):
“Also recorded” adds a separate entry of the source.

Experiments:
[1] = test system: SIVmac251; assay: Weekly intravaginal SIVmac251 challenge of vaccinated and/or SAMT-247 gel treated female macaques; type: in vivo, Rhesus macaques
Text: Animals. Fifty female Indian Rhesus macaques obtained from the free-range breeding colony on Morgan Island, South Carolina, were used in this study. The macaques, aged 2 to 3 years at study initiation, were negative for SIV, simian retrovirus, and STLV, and were MHC typed before being divided into 4 groups: vaccine/microbicide group (20 macaques, 3 A*01 positive, 1 B*17 positive, 1 B*08 positive); vaccine only group (18 macaques, 3 A*01 positive, 1 B*17 positive); microbicide only group (6 macaques, 1 both A*01 positive and B*17 positive) and control group (6 macaques, 1 both A*01 positive and B*17 positive). Data on 37 historical naïve controls intravaginally challenged with the same dose and lot of SIVmac251 were added to the control group to increase statistical power. […]
Immunization and Challenge. […] Up to 14 challenges were administered until the macaques became SIV positive as assessed by droplet digital PCR. […]
Statistical analysis. […] Comparisons of differences between groups in the number of challenges before viral acquisition were assessed using the log-rank (Mantel-Cox) test of the discrete-time proportional hazards model. […] Correlation analyses were performed using the non-parametric Spearman rank correlation method with exact permutation and approximate two-tailed P values calculated for the number of pairs≤17 and >17, respectively. […]

[2] = test system: CD14^+ cells; assay: Efferocytosis assay using SAMT-247 and gp120 pooled peptides; type: cell-based, macaque
Method: Efferocytosis assay. The frequency of efferocytotic CD14^+ cells was assessed by Efferocytosis Assay kit (#601770, Cayman Chemical company, Ann Arbor, MI, USA). CD14^+ cells were used as effector cells, whereas apoptotic neutrophils were used as target cells. The protocol was readapted in order to use CD14^+ monocyte cells rather than differentiated macrophages due to the low cell availability. CD14^+ cells were isolated from cryopreserved PBMCs (10×10^6 cells) collected following pre-study and 2 weeks post last immunization (week 14) or 5 weeks post last immunization (week 17) by using non-human primate CD14 microbeads (#130-091-097, Miltenyi Biotec Inc.) and following manufacturer instructions. At the end of the separation cells were counted and stained with CYTOTELL™ Blue provided by the kit and following manufacturer instructions. One unrelated macaque was used as source of neutrophils as target cells. Neutrophils were isolated as previously described (Khandpur, R., et al., Sci Transl Med 5, 178ra140 (2013)). Briefly, following isolation of PBMCs by Ficoll Plaque (GE Healthcare), the cellular pellet was added to an equal volume of 20% dextran in water, gently mixed, and incubated for 1 min. Approximately three volumes of PBS were added, mixed again and incubated in the dark for 50-60 minutes. At the end of incubation, the clear layer at the top of the tube containing neutrophils was collected. Cells were pelleted and treated with ACK lysing buffer (Quality Biological, Gaithersburg, MD, USA) for 5 min at 37° C., washed with R10 and counted. Neutrophils were stained with CFSE provided by the kit and following manufacturer instructions. The apoptosis of neutrophils was induced by treatment with Staurosporine Apoptosis inducer provided by the kit. Briefly, isolated cells were resuspended in R10 containing Staurosporine diluted 1:1000 and incubated at 37° C. for 3 hours. At the end of the incubation cells were washed twice with R10 and used for the efferocytosis assay. Subsequently, effector and apoptotic target cells were cultured alone (as controls) or cocultured at a ratio of one effector CD14^+ cell and three target apoptotic neutrophils. Cells were incubated at 37° C. for 12 hours. At the end of the coculture, cells were washed with PBS, fixed with 1% paraformaldehyde in PBS and acquired on a FACSYMPHONY™ A5 and examined using FACSDIVA™ software (BD Biosciences) by acquiring all stained cells. Data were further analyzed using FlowJo v10.1 (Treestar, Inc., Ashland, OR). The frequency of efferocytotic CD14^+ cells was determined as the frequency of double-positive cells for CYTOTELL™ Blue and CFSE on the CYTOTELL™ Blue positive monocytes.
Efferocytosis assay using SAMT-247 and gp120 pooled peptides. Efferocytosis was done as described above with the exception that SAMT-247 and/or gp120 pooled peptides were added to the co-culture for 12 hours. SAMT-247 induced Efferocytosis was measured by subtracting Efferocytosis with no SAMT-247 treated effector cells from Efferocytosis with SAMT-247 treated effector cells.

[3] = CD14^+ cells collected pre and two weeks after last immunization
[4] = sorted monocytes from PBMCs stimulated with gp120 peptides ± SAMT-247

## CC(=O)Sc1ccccc1C(=O)NCCC(N)=O [SAMT-247]
[1]; female macaques, up to 14 weekly intravaginal SIVmac251 exposures, SAMT-247 0.8% in HEC gel 4 h before each challenge
  risk of virus acquisition compared to controls: No differences in delayed acquisition; also recorded: did not significantly decrease; also recorded: had no effect
[1]; infected animals, peak VL at week 2
  peak virus levels, SAMT-247 only group vs controls: no difference
[2]; [3]
  per-cell amount of engulfed apoptotic cells (MFI): augmented
  percentage of CD14^+ cells engulfing apoptotic cells: augmented
[2]; Monocytes unstimulated or +gp120 peptides
  Function: >Efferocytosis
[2]; [4]
  per-cell amount of cells engulfed (MFI): reconstituted
  percentage of CD14^+ cells engulfing apoptotic neutrophils: reconstituted
